Experimental data taken from patent publication US20220362230A1, “USE OF GLUTARIMIDE DERIVATIVE FOR OVERCOMING STEROID RESISTANCE AND TREATING DISEASES ASSOCIATED WITH ABERRANT INTERFERON GAMMA SIGNALING” ("CHEMIMMUNE THERAPEUTICS" LIMITED LIABILITY COMPANY, priority 2018, published 2022).

Columns and labels:
[1] = test system: interferon-γ-dependent cytokine CXCL10 (interferon-gamma-induced protein IP10); test: Phase II clinical trial, CXCL10 concentration in blood plasma; format: in vivo, human; details: with baseline steroid therapy; patients with IFN-γ baseline level >100 pg/ml
Method: (§1) During the study therapy phase, patients received Compound 1 or placebo for 12 weeks against the background of baseline steroid therapy with low doses of inhaled corticosteroids. Compound 1 or placebo was administered orally once a day, 30 minutes before breakfast.
(§2) To study the effect of the IFN-γ baseline level in patients with asthma, the results obtained in the clinical study were additionally analyzed; the patients' response to therapy was studied depending on their IFN-γ baseline level in the blood at the time of trial inclusion (determined by the Bio-Plex Pro Human Chemokine Panel Assay (Bio-Rad)).
(§3) Moreover, in the clinical trial, Compound 1 was also analyzed for its effect on IFN-γ signal transduction. […] Thus, the suppression of steroid resistance induced by the use of Compound 1 could potentially be associated with an effect on the aberrant activity (signaling) of IFN-γ.

[2] = test system: cough induced by inhalation of citric acid and IFN-γ; test: Guinea pig model of cough induced by inhalation of citric acid and IFN-γ; format: in vivo, guinea pigs of the Aguti line; details: for The number of coughing movements within 8 minutes: 7 hours before citric acid inhalation, M ± m, n=5
Method: The activity of Compound I in a model of cough in guinea pigs, which was induced by inhalation of citric acid and IFN-γ, was studied in accordance with the method [Am J Respir Crit Care Med. 2018. V. 198(7). P. 868-879].
In the study, guinea pigs of the Aguti line were used. All experimental animals were inhaled with a citric acid solution (0.3 M) prepared in physiological saline, for 8 minutes. The pathology control group and the groups receiving therapy were inhaled with IFN-γ (10 pg/kg) for 3 minutes at 7 hours before the inhalation of citrate. Compound 1 was administered intragastrically once, immediately after inhalation of IFN-γ, i.e. 7 hours before inhalation of the citric acid solution. The antitussive activity was evaluated by counting the number of coughing fits within 8 minutes from the start of inhalation of citric acid. All data were analyzed by descriptive statistics: arithmetic mean (M) and standard error of the arithmetic mean (m). The Shapiro-Wilk test was used to check the normality of the distribution of the obtained experimental data. A normal distribution was analyzed with 1-way ANOVA (with Dunnett's post-analysis) to assess intergroup differences. A non-normal distribution was analyzed with […] (with Tukey's post-analysis) to compare several groups. Differences were determined at a confidence level of 5%.

[3] = test system: patients with bronchial asthma; test: Phase II clinical trial (PULM-XC8-02, NCT03450434), response to baseline inhaled corticosteroid therapy (FEV1); format: in vivo, human
Method: Thus, Compound is potentially useful for the therapy of diseases associated with the development of steroid resistance, in particular for the treatment of steroid-resistant asthma.
In the clinical trial, eligible patients were randomized 1:1:1:1 to one of four groups: • Compound 1 at a dose of 2 mg per day; • Compound 1 at a dose of 10 mg per day; • Compound 1 at a dose of 100 mg per day; and • Placebo.
as §1
Thus, one of the effects of the use of Compound 1 is the overcoming of the resistance to corticosteroids, which is the backbone of the baseline therapy of patients enrolled in the clinical trial.
as §2
The patients' response to baseline therapy in the groups of baseline steroid therapy and placebo decreased with an increase in the IFN-γ baseline level (FIG. 2). […] This fact indicates the overcoming of steroid resistance that can be caused, inter alia, by aberrant IFN-γ signaling.

[4] = test system: acute oxazolone-induced ulcerative colitis; test: Murine model of acute oxazolone-induced ulcerative colitis; format: in vivo, female balb/c mice; details: for The degree of large intestine wall damage, score: 72 hours after oxazolone, M ± m, n=10
Method: The activity of Compound 1 in a model of acute oxazolone-induced ulcerative colitis was studied using the standard method [Immunity. 2002. P. 629-638]. In the study, female balb/c mice (6-8 weeks old) were used. Compound I was administered intragastrically, three times: 1 hour, 25 hours, and 49 hours after rectal administration of oxazolone. The body weight of the animals was measured before and 24, 48 and 72 hours after administration of oxazolone. The intestinal wall damage was evaluated under a microscope 72 hours after administration of oxazolone, according to the following score scale: 0=no damage, 1=hyperemia, no ulcers, 2=hyperemia, thickening of the intestinal wall, no ulcers, 3=one ulcer without thickening of the intestinal wall, 4=2 or more sites of ulceration or inflammation, 5=2 or more serious sites of ulceration and inflammation, or one site of ulceration/inflammation, extending >1 cm along the length of the colon, and 6-10=damage covers>2 cm long the length of the colon, the score is increased by 1 for each additional 1 cm of involvement. All data were analyzed by descriptive statistics: arithmetic mean (M) and standard error of the arithmetic mean (m). The Shapiro-Wilk test was used to check the normality of the distribution of the obtained experimental data. A normal distribution was analyzed with 1-way ANOVA (with Dunnett's post-analysis) to assess intergroup differences. A non-normal distribution was analyzed with […] (with Tukey's post-analysis) to compare several groups. Differences were determined at a confidence level of 5%.

[5] = test system: IFN-γ; test: Phase II clinical trial, interferon-γ concentration in blood plasma; format: in vivo, human; details: with baseline therapy, compared with baseline therapy and placebo; regardless of IFN-γ level at inclusion
Method: as §1, §2, §3

## O=C1CCCC(=O)N1CCc1cnc[nH]1 [Compound 1, 1-(2-(1H-imidazol-4-yl)ethyl)piperidine-2,6-dione]
[1]
  Change in concentration of CXCL10 (IP10) in blood plasma, week 12 vs week 0: suppressed the concentration of interferon-γ-dependent cytokine CXCL10
[2]; 1.4 mg/kg intragastrically once
  The number of coughing movements within 8 minutes: 19.2 ± 2.7&
[2]; 14 mg/kg intragastrically once
  The number of coughing movements within 8 minutes: 18.4 ± 2.9&
[2]; administered intragastrically
  Effect on number of coughing movements: reduced the number of coughing movements
[3]; 100 mg per day with baseline steroid therapy vs placebo, especially patients with IFN-γ level more than 100 pg/ml
  Response to therapy (change in FEV1, week 12 vs. week 0): significantly greater and clinically significant response to therapy
[3]; 100 mg per day, 12 weeks, with baseline low-dose inhaled corticosteroids
  Clinical effect: clinically significant effect
[3]; baseline steroid therapy and Compound 1, 12 weeks, oral once a day, placebo group 13 out of 29
  Number of patients with an increase in FEV1 by 100 ml or more (response to baseline steroid therapy): 20 patients out of 29
[4]; 0.3 mg/kg intragastrically x3
  The degree of large intestine wall damage, score: 1.70 ± 0.30 score
[4]; 0.3 mg/kg, 24 hours after administration of oxazolone
  Body weight: 17.9 ± 0.2 g
[4]; 0.3 mg/kg, 48 hours after administration of oxazolone
  Body weight: 17.5 ± 0.3 g
[4]; 0.3 mg/kg, 72 hours after administration of oxazolone
  Body weight: 16.9 ± 0.2 g
[4]; 0.3 mg/kg, before administration of oxazolone
  Body weight: 19.0 ± 0.6 g
[4]; 3 mg/kg intragastrically x3
  The degree of large intestine wall damage, score: 1.89 ± 0.31 score
[4]; 3 mg/kg, 24 hours after administration of oxazolone
  Body weight: 17.9 ± 0.3 g
[4]; 3 mg/kg, 48 hours after administration of oxazolone
  Body weight: 17.6 ± 0.2 g
[4]; 3 mg/kg, 72 hours after administration of oxazolone
  Body weight: 16.7 ± 0.2 g
[4]; 3 mg/kg, before administration of oxazolone
  Body weight: 18.7 ± 0.4 g
[4]; 30 mg/kg intragastrically x3
  The degree of large intestine wall damage, score: 1.40 ± 0.16& score
[4]; 30 mg/kg, 24 hours after administration of oxazolone
  Body weight: 18.8 ± 0.2& g
[4]; 30 mg/kg, 48 hours after administration of oxazolone
  Body weight: 18.4 ± 0.4& g
[4]; 30 mg/kg, 72 hours after administration of oxazolone
  Body weight: 18.4 ± 0.5& g
[4]; 30 mg/kg, before administration of oxazolone
  Body weight: 19.8 ± 0.6 g
[4]; administered intragastrically
  Effect on degree of damage of the colon wall: reduced the degree of damage of the colon wall
  Effect on weight loss in animals: prevented weight loss
[4]; murine model of ulcerative colitis
  Intensity of action compared with reference steroid: not inferior to prednisolone by intensity of action
[5]
  Change in concentration of IFN-γ in blood plasma, week 12 vs week 0: negative dynamics of IFN-γ concentrations

## C[C@]12C=CC(=O)C=C1CC[C@@H]1[C@@H]2C(=O)C[C@@]2(C)[C@H]1CC[C@]2(O)C(=O)CO [Prednisone, reference compound]
[4]; 10 mg/kg, 24 hours after administration of oxazolone
  Body weight: 18.5 ± 0.4 g
[4]; 10 mg/kg, 48 hours after administration of oxazolone
  Body weight: 17.9 ± 0.4 g
[4]; 10 mg/kg, 72 hours after administration of oxazolone
  Body weight: 17.3 ± 0.6 g
[4]; 10 mg/kg
  The degree of large intestine wall damage, score: 1.80 ± 0.25 score
[4]; 10 mg/kg, before administration of oxazolone
  Body weight: 19.0 ± 0.4 g
